Data reported in PMC9146896, “Uracil as a Zn-Binding Bioisostere of the Allergic Benzenesulfonamide in the Design of Quinoline–Uracil Hybrids as Anticancer Carbonic Anhydrase Inhibitors” (Pharmaceuticals, 2022).

What was measured:
[1] = target: hCA I (Homo sapiens, UniProt P00915); assay: Carbonic anhydrase inhibition, colorimetric method (BioVision CA Inhibitor Screening Kit)
[2] = target: hCA II (Homo sapiens, UniProt P00918); assay: as above
[3] = target: hCA IX (Homo sapiens, UniProt Q16790); assay: as above; details: for Selectivity index I/IX: hCA IX over hCA I; for Selectivity index II/IX: hCA IX over hCA II
[4] = target: hCA XII (Homo sapiens, UniProt O43570); assay: as above; details: for Selectivity index I/XII: hCA XII over hCA I; for Selectivity index II/XII: hCA XII over hCA II
[5] = tested on: breast cancer cell line (MCF-7); assay: Antiproliferative activity, MTT assay under hypoxic conditions; details: Homo sapiens, MCF7, read-out: Cytotoxicity IC50 MCF7
[6] = tested on: lung cancer cell line (A549); assay: as above; assay type: cell-based; details: Homo sapiens, read-out: Cytotoxicity IC50 A549
[7] = tested on: Bcl-2; assay: Assessment of apoptotic marker levels: Bcl-2 in MCF-7; assay type: cell-based
Excerpt: (§1) The two cytoplasmic proteins, B-cell lymphoma protein 2 (Bcl-2) and its associated X protein (Bax), are essential for apoptosis in normal cells. Bax is a promoter and Bcl-2 is an inhibitor of apoptosis. Thus, the effect of 10d and 10l on apoptotic markers Bax and Bcl-2 in a breast cancer cell line (MCF-7) and a lung cancer cell line (A549) has been estimated.

[8] = tested on: Bax; assay: Assessment of apoptotic marker levels: Bax in MCF-7; assay type: cell-based
Excerpt: as §1

[9] = tested on: Bcl-2; assay: Assessment of apoptotic marker levels: Bcl-2 in A549; assay type: cell-based
Excerpt: as §1

[10] = tested on: Bax; assay: Assessment of apoptotic marker levels: Bax in A549; assay type: cell-based
Excerpt: as §1

Sequence of hCA I (P00915 whole entry): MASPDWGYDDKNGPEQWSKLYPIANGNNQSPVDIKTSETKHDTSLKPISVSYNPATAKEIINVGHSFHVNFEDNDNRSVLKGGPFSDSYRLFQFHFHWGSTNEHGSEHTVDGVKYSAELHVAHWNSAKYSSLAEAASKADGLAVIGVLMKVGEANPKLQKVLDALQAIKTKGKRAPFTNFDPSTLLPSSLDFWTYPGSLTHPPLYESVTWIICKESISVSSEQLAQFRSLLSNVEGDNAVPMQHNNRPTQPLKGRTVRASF
Sequence of hCA XII (O43570 25-354): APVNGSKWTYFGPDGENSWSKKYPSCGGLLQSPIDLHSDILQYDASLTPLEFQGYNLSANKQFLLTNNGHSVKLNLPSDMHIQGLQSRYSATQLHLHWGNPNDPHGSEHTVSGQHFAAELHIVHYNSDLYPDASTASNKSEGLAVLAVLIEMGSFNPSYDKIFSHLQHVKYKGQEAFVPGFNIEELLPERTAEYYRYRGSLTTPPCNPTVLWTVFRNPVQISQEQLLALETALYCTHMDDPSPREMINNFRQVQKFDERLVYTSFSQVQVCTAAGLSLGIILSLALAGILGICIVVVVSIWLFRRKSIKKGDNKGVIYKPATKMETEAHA

In the case of `Nc1c(/N=C/c2cc3ccccc3[nH]c2=O)c(=O)[nH]c(=O)n1Cc1ccccc1` [Compound 10b, (E)-6-Amino-1-benzyl-5-(((2-oxo-1,2-dihydroquinolin-3-yl)methylene)amino) pyrimidine-2,4(1H,3H)-dione], the melting point is reported as 280 to 282 °C, the IC50 [1] is reported as 1010 nM and the Ki [1] is reported as 560 nM. The IC50 [2] was 1140 nM, the Ki [2] was 630 nM and the IC50 [3] was 630 nM. The Ki [3] was 350 nM, the “Selectivity index I/IX” value [3] was 1.60 and the “Selectivity index II/IX” value [3] was 1.81. For the same compound, the IC50 [4] was 350 nM, the Ki [4] was 190 nM and the “Selectivity index I/XII” value [4] was 2.88. For the same compound, the “Selectivity index II/XII” value [4] was 3.24.

`CCn1c(N)c(/N=C/c2cc3cccc(C)c3[nH]c2=O)c(=O)[nH]c1=O` [Compound 10f, (E)-6-Amino-1-ethyl-5-(((8-methyl-2-oxo-1,2-dihydroquinolin-3-yl)methylene)amino)pyrimidine-2,4(1H,3H)-dione] showed a melting point of 278 to 280 °C, an IC50 [1] of 330 nM and a Ki [1] of 180 nM. For the same compound, the IC50 [2] was 790 nM, the Ki [2] was 440 nM and the IC50 [3] was 270 nM. The Ki [3] was 140 nM, the “Selectivity index I/IX” value [3] was 1.23 and the “Selectivity index II/IX” value [3] was 2.99. For the same compound, the IC50 [4] was 170 nM, the Ki [4] was 90 nM and the “Selectivity index I/XII” value [4] was 1.95. For the same compound, the “Selectivity index II/XII” value [4] was 4.72.

With `CCn1c(N)c(/N=C/c2cc3ccccc3[nH]c2=O)c(=O)[nH]c1=O` [Compound 10c, (E)-6-Amino-1-ethyl-5-(((2-oxo-1,2-dihydroquinolin-3-yl)methylene)amino)pyrimidine-2,4(1H,3H)-dione] the melting point was 290 to 292 °C, the IC50 [1] was 1760 nM and the Ki [1] was 970 nM. It also gave an IC50 [2] of 660 nM, a Ki [2] of 370 nM and an IC50 [3] of 400 nM. The Ki [3] was 220 nM, the “Selectivity index I/IX” value [3] was 4.37 and the “Selectivity index II/IX” value [3] was 1.65. The IC50 [4] was 490 nM, the Ki [4] was 270 nM and the “Selectivity index I/XII” value [4] was 3.62. For the same compound, the “Selectivity index II/XII” value [4] was 1.37.

In the case of `Nc1[nH]c(=O)[nH]c(=O)c1/N=C/c1cc2ccccc2[nH]c1=O` [Compound 10a, (E)-6-Amino-5-(((2-oxo-1,2-dihydroquinolin-3-yl)methylene)amino)pyrimidine-2,4(1H,3H)-dione], the melting point is reported as 270 to 272 °C, the IC50 [1] is reported as 970 nM and the Ki [1] is reported as 530 nM. It also gave an IC50 [2] of 520 nM, a Ki [2] of 290 nM and an IC50 [3] of 250 nM. For the same compound, the Ki [3] was 140 nM, the “Selectivity index I/IX” value [3] was 3.88 and the “Selectivity index II/IX” value [3] was 2.09. For the same compound, the IC50 [4] was 320 nM, the Ki [4] was 170 nM and the “Selectivity index I/XII” value [4] was 3.05. For the same compound, the “Selectivity index II/XII” value [4] was 1.65.

`Cn1c(N)c(/N=C/c2cc3ccccc3[nH]c2=O)c(=O)[nH]c1=S` [Compound 10e, (E)-3-(((6-Amino-1-methyl-4-Oxo-2-thioxo-1,2,3,4-tetrahydropyrimidin-5-yl)imino)methyl) quinolin-2(1H)-one] gave a melting point of 284 to 286 °C, an IC50 [1] of 1250 nM and a Ki [1] of 690 nM. For the same compound, the IC50 [2] was 1210 nM, the Ki [2] was 670 nM and the IC50 [3] was 1370 nM. The Ki [3] was 760 nM, the “Selectivity index I/IX” value [3] was 0.91 and the “Selectivity index II/IX” value [3] was 0.88. The IC50 [4] was 590 nM, the Ki [4] was 330 nM and the “Selectivity index I/XII” value [4] was 2.12. The “Selectivity index II/XII” value [4] was 2.06.

`COc1ccc2[nH]c(=O)c(/C=N/c3c(N)n(C)c(=O)[nH]c3=O)cc2c1` [Compound 10k, (E)-6-Amino-5-(((6-methoxy-2-oxo-1,2-dihydroquinolin-3-yl)methylene)amino)-1-methyl pyrimidine-2,4(1H,3H)-dione] gave a melting point of 293 to 295 °C, an IC50 [1] of 2120 nM and a Ki [1] of 1170 nM. The IC50 [2] was 6570 nM, the Ki [2] was 3630 nM and the IC50 [3] was 1280 nM. The Ki [3] was 710 nM, the “Selectivity index I/IX” value [3] was 1.66 and the “Selectivity index II/IX” value [3] was 5.14. The IC50 [4] was 540 nM, the Ki [4] was 300 nM and the “Selectivity index I/XII” value [4] was 3.96. The “Selectivity index II/XII” value [4] was 12.26.

For `Cc1cccc2cc(/C=N/c3c(N)n(C)c(=S)[nH]c3=O)c(=O)[nH]c12` [Compound 10g, (E)-3-(((6-Amino-1-methyl-4-oxo-2-thioxo-1,2,3,4-tetrahydropyrimidin-5-yl)imino)methyl)-8-methylquinolin-2(1H)-one], the melting point was 265 to 267 °C, the IC50 [1] was 2160 nM and the Ki [1] was 1200 nM. The IC50 [2] was 3360 nM, the Ki [2] was 1860 nM and the IC50 [3] was 1080 nM. The Ki [3] was 600 nM, the “Selectivity index I/IX” value [3] was 1.99 and the “Selectivity index II/IX” value [3] was 3.10. For the same compound, the IC50 [4] was 330 nM, the Ki [4] was 180 nM and the “Selectivity index I/XII” value [4] was 6.47. The “Selectivity index II/XII” value [4] was 10.05.

`Cn1c(N)c(/N=C/c2cc3ccccc3[nH]c2=O)c(=O)[nH]c1=O` [Compound 10d, (E)-6-Amino-1-methyl-5-(((2-oxo-1,2-dihydroquinolin-3-yl)methylene)amino) pyrimidine-2,4(1H,3H)-dione] gave an IC50 [5] of 2870 ± 50 nM, an IC50 [6] of 11800 ± 220 nM and a Bcl2 [7] of 2.587 ± 0.03 nm/mL. For the same compound, the “Bcl-2 level in comparison with the control” value (shortened to “Bcl-2 level in comparison”) [7] was “downregulated”, the Bax [8] was 403.1 ± 4.69 pg/mL and the “Bax level relative to the control” value [8] was “nearly six-fold”. For the same compound, the Bcl2 [9] was 2.841 ± 0.01 nm/mL, the “Bcl-2 level in comparison” value [9] was “downregulated” and the Bax [10] was 278.6 ± 9.14 pg/mL. For the same compound, the “Bax level relative to the control” value [10] was “nearly six-fold”, the melting point was 298 to 300 °C and the IC50 [1] was 230 nM. It also gave a Ki [1] of 130 nM, an IC50 [2] of 260 nM and a Ki [2] of 140 nM. For the same compound, the IC50 [3] was 220 nM, the Ki [3] was 120 nM and the “Selectivity index I/IX” value [3] was 1.09. For the same compound, the “Selectivity index II/IX” value [3] was 1.21, the IC50 [4] was 190 nM and the Ki [4] was 110 nM. The “Selectivity index I/XII” value [4] was 1.24 and the “Selectivity index II/XII” value [4] was 1.37.

`CCn1c(N)c(/N=C/c2cc3cc(OC)ccc3[nH]c2=O)c(=O)[nH]c1=O` [Compound 10j, (E)-6-Amino-1-ethyl-5-(((6-methoxy-2-oxo-1,2-dihydroquinolin-3-yl)methylene)amino)pyrimidine-2,4(1H,3H)-dione] showed a melting point of 287 to 289 °C, an IC50 [1] of 890 nM and a Ki [1] of 490 nM. The IC50 [2] was 2600 nM, the Ki [2] was 1440 nM and the IC50 [3] was 870 nM. For the same compound, the Ki [3] was 480 nM, the “Selectivity index I/IX” value [3] was 1.02 and the “Selectivity index II/IX” value [3] was 2.98. The IC50 [4] was 620 nM, the Ki [4] was 340 nM and the “Selectivity index I/XII” value [4] was 1.43. For the same compound, the “Selectivity index II/XII” value [4] was 4.18.

`COc1ccc2[nH]c(=O)c(/C=N/c3c(N)[nH]c(=O)[nH]c3=O)cc2c1` [Compound 10h, (E)-6-Amino-5-(((6-methoxy-2-oxo-1,2-dihydroquinolin-3-yl)methylene)amino) pyrimidine-2,4(1H,3H)-dione] showed a melting point of 275 to 277 °C, an IC50 [1] of 3230 nM and a Ki [1] of 1780 nM. It also gave an IC50 [2] of 4500 nM, a Ki [2] of 2490 nM and an IC50 [3] of 600 nM. The Ki [3] was 330 nM, the “Selectivity index I/IX” value [3] was 5.39 and the “Selectivity index II/IX” value [3] was 7.52. The IC50 [4] was 400 nM, the Ki [4] was 220 nM and the “Selectivity index I/XII” value [4] was 8.00. The “Selectivity index II/XII” value [4] was 11.16.

For `COc1ccc2[nH]c(=O)c(/C=N/c3c(N)n(C)c(=S)[nH]c3=O)cc2c1` [Compound 10l, (E)-3-(((6-Amino-1-methyl-4-oxo-2-thioxo-1,2,3,4-tetrahydropyrimidin-5-yl)imino)methyl)-6-methoxyquinolin-2(1H)-one], the IC50 [5] was 4080 ± 80 nM, the IC50 [6] was 26100 ± 560 nM and the Bcl2 [7] was 3.296 ± 0.09 nm/mL. The “Bcl-2 level in comparison” value [7] was “downregulated”, the Bax [8] was 337.2 ± 7.55 pg/mL and the “Bax level relative to the control” value [8] was “nearly six-fold”. The Bcl2 [9] was 4.605 ± 0.28 nm/mL, the “Bcl-2 level in comparison” value [9] was “downregulated” and the Bax [10] was 208.4 ± 4.07 pg/mL. The “Bax level relative to the control” value [10] was “nearly six-fold”, the melting point was 295 to 297 °C and the IC50 [1] was 250 nM. The Ki [1] was 140 nM, the IC50 [2] was 1880 nM and the Ki [2] was 1040 nM. The IC50 [3] was 140 nM, the Ki [3] was 80 nM and the “Selectivity index I/IX” value [3] was 1.75. For the same compound, the “Selectivity index II/IX” value [3] was 13.20, the IC50 [4] was 190 nM and the Ki [4] was 110 nM. For the same compound, the “Selectivity index I/XII” value [4] was 1.29 and the “Selectivity index II/XII” value [4] was 9.75.

For `COc1ccc2[nH]c(=O)c(/C=N/c3c(N)n(Cc4ccccc4)c(=O)[nH]c3=O)cc2c1` [Compound 10i, (E)-6-Amino-1-benzyl-5-(((6-methoxy-2-oxo-1,2-dihydroquinolin-3-yl)methylene)amino) pyrimidine-2,4(1H,3H)-dione], the melting point was 291 to 293 °C, the IC50 [1] was 2110 nM and the Ki [1] was 1170 nM. The IC50 [2] was 1070 nM, the Ki [2] was 590 nM and the IC50 [3] was 910 nM. The Ki [3] was 510 nM, the “Selectivity index I/IX” value [3] was 2.31 and the “Selectivity index II/IX” value [3] was 1.17. The IC50 [4] was 230 nM, the Ki [4] was 130 nM and the “Selectivity index I/XII” value [4] was 9.07. For the same compound, the “Selectivity index II/XII” value [4] was 4.60.

For `CN[C@@H]1C[C@H]2O[C@@](C)([C@@H]1OC)n1c3ccccc3c3c4c(c5c6ccccc6n2c5c31)C(=O)NC4` [Staurosporine, staurosporine, reference compound], the IC50 [5] was 6920 ± 180 nM, the Bcl2 [7] was 2.829 ± 0.07 nm/mL and the Bax [8] was 381.8 ± 11.4 pg/mL. For the same compound, the Bcl2 [9] was 3.78 ± 0.14 nm/mL and the Bax [10] was 310.5 ± 9.7 pg/mL.
